Data: patent US11806393B2, “Flavivirus peptide sequences, epitopes, and methods and uses thereof” (priority 2017, dated 2023)

Legend:
Assay type in all cases: cell-based, mouse
[1] = tested on: CD8+ T cells; experiment: IFNγ-ELISPOT of predicted H-2b-binding ZIKV peptides; conditions: CD8+ T cells of mice infected with MR766 or FSS13025, day 7; positive: SFC per 10^6 CD8+ T cells ≥20 and stimulation index ≥2
Method: CD8^+ T cells were isolated by magnetic bead positive selection (Miltenyi Biotec, Germany). A total of 2×10^5 CD8^+ T cells were stimulated with 1×10^5 LPS-blast cells as antigen presenting cells (APCs) and 10 μg of individual ZIKV-derived peptide in 96-well flat-bottom plates (IMMOBILON™-P; Millipore, MA) coated with anti-mouse IFNγ monoclonal antibody (mAb) (clone AN18; Mabtech, Sweden) in triplicate. IFNγ-ELISPOT was performed as previously detailed (Elong Ngono et al., 2016). Positive peptides were those with a number of spot-forming cells (SFC) per 10^6 CD8^+ T cells ≥20 and a stimulation index ≥2 based on the negative control (DMSO). […]
The following results are with reference to FIG. 3A and FIG. 3B, where five-week-old LysMCre^+IFNAR^fl/fl were infected retro-orbitally with 10^4 FFU of ZIKV MR766 or FSS13025. […] A total of 244 peptides from ZIKV strains predicted to bind H-2Kb and H-2db with high affinity were screened. Two independent experiments for each ZIKV strain (n=5 mice for each experiment) were performed in triplicate per peptide. The data are expressed as the mean of spot forming cells (SFC) per 10^6 CD8^+ T cells, and error bars are represented as SEM. One-way ANOVA was used to compare the mean of each peptide with the control (DMSO) ([…]). […] The dotted line corresponds to the average amount of IFNγ produced by MOCK mice when stimulated with positive ZIKV-derived peptides (0.19% of IFNγ+CD8^+ T cells).

[2] = tested on: CD8+ T cells; experiment: IFNγ ELISPOT, ZIKV-infected Ifnar-/- HLA-B*0702 transgenic mice; conditions: HLA-B*0702 mice; for SFC/10^6 CD8+ T cells, MR766: 7 days after 1×10^2 FFU ZIKV MR766; for SFC/10^6 CD8+ T cells, FSS13025: 7 days after 1×10^2 FFU ZIKV FSS13025; for immunodominance in IFNγ ELISPOT: immunodominant: >500 SFCs/10^6 CD8+ T cells, shared by both ZIKV strains
Method: (§1) Two ZIKV strains, MR766 (Uganda, 1947) and FSS13025 (Cambodia, 2010), were obtained from the World Reference Center for Emerging Viruses and Arboviruses (WRCEVA). The mouse-adapted DENV2 strain S221 is a triple-plaque purified clone derived from DENV2 D2S1038. Both ZIKV and DENV2 were amplified in C6/36 mosquito cells, and viral titers were measured using baby hamster kidney (BHK)-21 cell-based focus forming assay (FFA). For epitope screening, 5-week old mice (female or male) were infected retro-orbitally (R.O.) with either 1×102 FFU of ZIKV FSS13025 or ZIKV MR766, or 2×10^4 FFU of DENV2 S221 in 200 μl 10% FBS/PBS. Seven days after infection, CD8^+ T cells were isolated from splenocytes and used for ELISPOT assay, while the splenocytes were directly used for ICS assay. Additionally, 5-week old mice were inoculated I.P. with 2×10^3 FFU of DENV2 S221 for 4 weeks.
CD8^+ T cells were isolated from splenocytes using magnetic bead positive selection (Miltenyi Biotec, Germany) 7 days after virus infection. 2×10^5 CD8^+ T cells were stimulated with 1×10^5 LPS-blasts loaded with 10 μg of individual peptide in 96-well flat-bottom plates (IMMOBILON™-P; Millipore, Bedford, Mass.) that were coated with anti-IFNγ mAb (clone AN18; Mabtech, Stockholm, Sweden) in triplicate. Concanavalin A (ConA) was used as positive control. After 20 hours of incubation, biotinylated anti-mouse IFNγ mAb (R4-6A2; Mabtech), followed by ABC peroxidase (Vector Laboratories, Burlingame, Calif., USA) and then 3-amino-9-ethylcarbazole (Sigma-Aldrich, St. Louis, Mo., USA) were added into the wells. […] A peptide inducing a magnitude of >500 SFCs/10^6 CD8^+ T cells was considered as an immunodominant peptide.
Two independent experiments performed in triplicate were averaged and the error bars represent the SEM. The data are expressed as the mean number of spot forming cells (SFC) per 10^6 CD8^+ T cells. The criteria for positivity were net SFC per 10^6 cells of >20, and a stimulation index of >2.0 when compared with the negative control. Dotted lines represent the cutoff value. * Indicates a positive response. […] ConA denotes Concanavalin A.

[3] = tested on: CD3+CD8+ T cells; experiment: IFNγ ICS, ZIKV-infected Ifnar-/- HLA-B*0702 transgenic mice; conditions: for % IFNγ+ CD8+ T cells, MR766 / % IFNγ+ CD8+ T cells, FSS13025: HLA-B*0702 mice; for % IFNγ+ CD8+ T cells, MR766: 7 days after ZIKV MR766, ICS; for % IFNγ+ CD8+ T cells, FSS13025: 7 days after ZIKV FSS13025, ICS
Method: as §1
Spleens were harvested from virus-infected, mock-immunized, or peptide-immunized mice. 1×10^6 splenocytes were plated in each well of 96-well U-bottom plates and stimulated with individual peptide (10 μg crude peptide or 1 μg pure peptide per well) for 6 hours. Five hours before the end of incubation, Brefeldin A (GolgiPlug; BD Biosciences) and PE-conjugated anti CD107a mAb (clone 1D4B, eBioscience) were added to the cells. Splenocytes stimulated with PMA-ionomycin were used as the positive control, while cells without any stimulation were the negative control. […] Samples were run using an LSR™ II (BD Biosciences) and analyzed using FLOWJO™ software X 10.0.7 (Tree Star, Ashland, Oreg.).
Data represent the average of two independent experiments and are expressed as mean±SEM. *, P<0.05; **, P<0.01; Two-tailed Mann-Whitney test. P/I denotes PMA/ionomycin.

| Substance | Strains (ZIKV strain for which the peptide induced a positive T cell response, IFNγ-ELISPOT) [1] | SFC/10^6 CD8+ T cells, MR766 [2] | further results |
| --- | --- | --- | --- |
| 1 (AAFTFTKV) [compound 1] | MR766 | – | – |
| 2 (AAGAWYVYV) [compound 2] | MR766 | – | – |
| 3 (ISFATTLGV) [compound 3] | MR766 | – | – |
| 4 (MSYECPML) [compound 4] | MR766 | – | – |
| 5 (PSVRNGNEI) [compound 5] | MR766 | – | – |
| 6 (RAIWYMWL) [compound 6] | MR766 | – | – |
| 7 (RQVMNIVSSWL) [compound 7] | MR766 | – | – |
| 8 (SSIAARGYI) [compound 8] | MR766 | – | – |
| 9 (SSLVNGVVRL) [compound 9] | MR766 | – | – |
| 10 (SSWLWKEL) [compound 10] | MR766 | – | – |
| 11 (TGWSNWEEV) [compound 11] | MR766 | – | – |
| 12 (TTVSNMAEV) [compound 12] | MR766 | – | – |
| 13 (VMIFLSTAV) [compound 13] | MR766 | – | – |
| 14 (YSLECDPAVI) [compound 14] | MR766 | – | – |
| 15 (AAFTFTKI) [compound 15] | FSS | – | – |
| 16 (SSLINGVVRL) [compound 16] | FSS | – | – |
| 17 (TLGMNKCYI) [compound 17] | FSS | – | – |
| 18 (IMVAVGLL) [compound 18] | MR766/FSS | – | – |
| 19 (ATMSYECPM) [compound 19] | MR766/FSS | – | – |
| 20 (CAEAPNMKVI) [compound 20] | MR766/FSS | – | – |
| 21 (IGVSNRDFV) [compound 21] | MR766/FSS | – | – |
| 22 (MAVDMQTLTPV) [compound 22] | MR766/FSS | – | – |
| 23 (RMAVLGDTA) [compound 23] | MR766/FSS | – | – |
| 24 (RSYCYEASI) [compound 24] | MR766/FSS | – | – |

| Substance | Strains (ZIKV strain for which the peptide induced a positive T cell response, IFNγ-ELISPOT) [1] | SFC/10^6 CD8+ T cells, MR766 [2] | further results |
| --- | --- | --- | --- |
| 25 (SNRDFVEGM) [compound 25] | MR766/FSS | – | – |
| 26 (SQLTPLTLI) [compound 26] | MR766/FSS | – | – |
| 27 (SVKKNLPFVM) [compound 27] | MR766/FSS | – | – |
| AAGKRGAAL [MR-NS3596-NS4A1] | – | 148 SFC/10^6 CD8+ T cells | – |
| FPDSNSPINI (FPDSNSPIM) [FSS/MR-NS3309-317] | – | 565 SFC/10^6 CD8+ T cells | SFC/10^6 CD8+ T cells, FSS13025 [2]: 335 SFC/10^6 CD8+ T cells; % IFNγ+ CD8+ T cells, MR766 [3]: (0.49%) |
| GPCKVPAQMAV [FSS-E337-347] | – | 271 SFC/10^6 CD8+ T cells | – |
| GPQRLPVPV [FSS/MR-NS199-107] | – | 103 SFC/10^6 CD8+ T cells | – |
| IPYLGKREDL [FSS/MR-NS5587-596] | – | 438 SFC/10^6 CD8+ T cells | SFC/10^6 CD8+ T cells, FSS13025 [2]: 178 SFC/10^6 CD8+ T cells; % IFNγ+ CD8+ T cells, MR766 [3]: (0.26%) |
| LPILAALTPL [MR-NS2A141-150] | – | 540 SFC/10^6 CD8+ T cells | % IFNγ+ CD8+ T cells, MR766 [3]: (0.28%) |
| LPSHSTRKL [FSS/MR-M4-12] | – | 398 SFC/10^6 CD8+ T cells | SFC/10^6 CD8+ T cells, FSS13025 [2]: 235 SFC/10^6 CD8+ T cells; % IFNγ+ CD8+ T cells, MR766 [3]: (0.28%) |
| RPAEGGKTVM [MR-NS5332-341] | – | 277 SFC/10^6 CD8+ T cells | % IFNγ+ CD8+ T cells, MR766 [3]: (0.35%) |
| RPASAWAIYA [FSS/MR-NS4B35-44] | – | 180 SFC/10^6 CD8+ T cells | % IFNγ+ CD8+ T cells, MR766 [3]: (0.49%) |
| RPEADKVAAI [FSS/MR-NS3492-501] | – | 157 SFC/10^6 CD8+ T cells | – |
| RPRTTVVAENI [FSS/MR-NS5605-614] | – | 641 SFC/10^6 CD8+ T cells | SFC/10^6 CD8+ T cells, FSS13025 [2]: 383 SFC/10^6 CD8+ T cells; % IFNγ+ CD8+ T cells, FSS13025 [3]: (0.22%); % IFNγ+ CD8+ T cells, MR766 [3]: (0.55%) |
| RPYKAAAAQL [FSS/MR-NS4A36-45] | – | 120 SFC/10^6 CD8+ T cells | – |
| RVIDSRRCL [FSS/MR-NS3405-413] | – | 718 SFC/10^6 CD8+ T cells | SFC/10^6 CD8+ T cells, FSS13025 [2]: 236 SFC/10^6 CD8+ T cells; % IFNγ+ CD8+ T cells, FSS13025 [3]: (0.23%); % IFNγ+ CD8+ T cells, MR766 [3]: (0.4%) |
| SPFGGLKRLPA [FSS-C25-35] | – | – | SFC/10^6 CD8+ T cells, FSS13025 [2]: 802 SFC/10^6 CD8+ T cells; % IFNγ+ CD8+ T cells, FSS13025 [3]: (0.79%); simultaneous IFNγ and TNFα production by peptide-stimulated CD8+ T cells ([3]; ZIKV FSS13025-infected mice): stimulated production of both IFNγ and TNFα |
| SPQDNQMAI [FSS/MR-NS4A125-133] | – | 159 SFC/10^6 CD8+ T cells | – |
| SPRAEATL [FSS/MR-E173-180] | – | 108 SFC/10^6 CD8+ T cells | SFC/10^6 CD8+ T cells, FSS13025 [2]: 167 SFC/10^6 CD8+ T cells |
| TPHWNNKEAL [FSS/MR-E233-242] | – | 218 SFC/10^6 CD8+ T cells | SFC/10^6 CD8+ T cells, FSS13025 [2]: 158 SFC/10^6 CD8+ T cells; % IFNγ+ CD8+ T cells, MR766 [3]: (0.3%) |
| TPLARGTL [FSS/MR-NS2A148-155] | – | 1055 SFC/10^6 CD8+ T cells | SFC/10^6 CD8+ T cells, FSS13025 [2]: 706 SFC/10^6 CD8+ T cells; immunodominance in IFNγ ELISPOT [2]: immunodominant; % IFNγ+ CD8+ T cells, FSS13025 [3]: (0.28%); % IFNγ+ CD8+ T cells, MR766 [3]: (0.87%); simultaneous IFNγ and TNFα production by peptide-stimulated CD8+ T cells ([3]; ZIKV MR766-infected mice): stimulated simultaneous production of IFNγ and TNFα |
| TPLTLIVAIIL [FSS/MR-NS4B105-115] | – | 163 SFC/10^6 CD8+ T cells | % IFNγ+ CD8+ T cells, MR766 [3]: (0.4%) |
| TPNSPRAEA [FSS/MR-E170-178] | – | 155 SFC/10^6 CD8+ T cells | – |
| VPRTDNIAL [MR-NS2A133-141] | – | 776 SFC/10^6 CD8+ T cells | SFC/10^6 CD8+ T cells, FSS13025 [2]: 648 SFC/10^6 CD8+ T cells; immunodominance in IFNγ ELISPOT [2]: immunodominant; % IFNγ+ CD8+ T cells, FSS13025 [3]: (0.54%); % IFNγ+ CD8+ T cells, MR766 [3]: (1.39%) |
